Counter-ions that a name gives are not always drawn.
Columns and labels:
[1] = molecular target: T1, Human 5-HT4(d) (Homo sapiens, UniProt Q13639); test: Human 5-HT4 binding ([3H]-GR113808, SPA); settings: human 5-HT4(d) HEK293 membranes, read-out: h5HT4 Ki
T1 construct: expressed in transfected cells; host or cells: HEK293
Protocol: Human S-HT4(d) transfected HEK293 cells were prepared and grown in-house. The collected cells were suspended in 50 mM HEPES (pH 7.4 at 4° C.) supplemented with protease inhibitor cocktail (Boehringer, 1:1000 dilution) and homogenized using a hand held Polytron PT 1200 disruptor set at full power for 30 sec on ice. The homogenates were centrifuged at 40,000×g at 4° C. for 30 min. The pellets were then resuspended in 50 mM HEPES (pH 7.4 at 4° C.) and centrifuged once more in the same manner. The final pellets were resuspended in an appropriate volume of 50 mM HEPES (pH 7.4 at 25° C.), homogenized, aliquoted and stored at −80° C. until use. An aliquot of membrane fractions was used for protein concentration determination using BCA protein assay kit (PIERCE) and ARVOsx plate reader (Wallac).
For the binding experiments, 25 μl of test compounds were incubated with 25 μl of [^3H]-GR113808 (Amersham, final 0.2 nM) and 150 μl of membrane homogenate and WGA-SPA beads (Amersham) suspension solutions (10 μg protein and 1 mg SPA beads/well) for 60 minutes at room temperature. Nonspecific binding was determined by 1 μM GR113808 (Tocris) at the final concentration. Incubation was terminated by centrifugation at 1000 rpm. Receptor-bound radioactivity was quantified by counting with MicroBeta plate counter (Wallac).

[2] = molecular target: T2, Human 5-HT4(d) transfected HEK293 cells (Homo sapiens, UniProt Q13639); test: Agonist-induced cAMP elevation in human 5-HT4(d) transfected HEK293 cells; format: cell-based; settings: for Emax: HEK293, normalized to cAMP produced by 1000 nM serotonin, read-out: cAMP 5HT4 function Emax; for EC50: human 5-HT4(d) transfected HEK293 cells, read-out: cAMP 5HT4 function; for cAMP 5HT4 function, verdict in words: table remark in brackets
T2 construct: expressed in transfected cells; host or cells: HEK293
T2 sequence (Q13639 1-360 isoform Q13639-3): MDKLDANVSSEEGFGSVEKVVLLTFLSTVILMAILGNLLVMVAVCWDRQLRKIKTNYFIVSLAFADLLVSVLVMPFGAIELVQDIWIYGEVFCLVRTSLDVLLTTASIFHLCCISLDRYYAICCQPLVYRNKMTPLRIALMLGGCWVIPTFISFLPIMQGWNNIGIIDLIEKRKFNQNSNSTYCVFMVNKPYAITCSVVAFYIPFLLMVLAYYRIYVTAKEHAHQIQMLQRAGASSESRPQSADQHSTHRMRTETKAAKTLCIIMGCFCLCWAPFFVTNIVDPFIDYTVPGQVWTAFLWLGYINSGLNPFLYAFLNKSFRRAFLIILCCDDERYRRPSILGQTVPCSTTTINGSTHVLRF
Protocol: Agonist-Induced cAMP Elevation in Human 5-HT4(d) Transfected HEK293 Cells
Human 5-HT4(d) transfected HEK293 cells were established in-house. The cells were grown at 37° C. and 5% CO2 in DMEM supplemented with 10% FCS, 20 mM HEPES (pH 7.4), 200 μg/ml hygromycin B (Gibco), 100 units/ml penicillin and 100 μg/ml streptomycin.
The cells were grown to 60-80% confluence. On the previous day before treatment with compounds dialyzed FCS (Gibco) was substituted for normal and the cells were incubated overnight.
Compounds were prepared in 96-well plates (12.5 μl/well). The cells were harvested with PBS/1 mM EDTA, centrifuged and washed with PBS. At the beginning of the assay, cell pellet was resuspended in DMEM supplemented with 20 mM HEPES, 10 μM pargyline (Sigma) and 1 mM 3-isobutyl-1-methylxanthine (Sigma) at the concentration of 1.6×10^5 cells/ml and left for 15 minutes at room temperature. The reaction was initiated by addition of the cells into plates (12.5 μl/well). After incubation for 15 minutes at room temperature, 1% Triton X-100 was added to stop the reaction (25 μl/well) and the plates were left for 30 minutes at room temperature. Homogenous time-resolved fluorescence-based cAMP (Schering) detection was made according to the manufacturer's instruction. ARVOsx multilabel counter (Wallac) was used to measure HTRF (excitation 320 nm, emission 665 nm/620 nm, delay time 50 μs, window time 400 μs).
Data was analyzed based on the ratio of fluorescence intensity of each well at 620 nm and 665 nm followed by cAMP quantification using cAMP standard curve. Enhancement of cAMP production elicited by each compound was normalized to the amount of cAMP produced by 1000 nM serotonin (Sigma).

[3] = molecular target: T3, rat 5-HT3 receptors (Rattus norvegicus, UniProt P35563); test: Rat 5-HT3 receptor binding ([3H]-BRL 43694, rat cortical membranes); settings: read-out: r5HT3 Binding Ki
T3 construct: Cerebral cortical tissues were removed from male Sprague-Dawley (SD) rats; from tissue; host or cells: cerebral cortex of male Sprague-Dawley rats (membranes)
T3 sequence (P35563 24-483): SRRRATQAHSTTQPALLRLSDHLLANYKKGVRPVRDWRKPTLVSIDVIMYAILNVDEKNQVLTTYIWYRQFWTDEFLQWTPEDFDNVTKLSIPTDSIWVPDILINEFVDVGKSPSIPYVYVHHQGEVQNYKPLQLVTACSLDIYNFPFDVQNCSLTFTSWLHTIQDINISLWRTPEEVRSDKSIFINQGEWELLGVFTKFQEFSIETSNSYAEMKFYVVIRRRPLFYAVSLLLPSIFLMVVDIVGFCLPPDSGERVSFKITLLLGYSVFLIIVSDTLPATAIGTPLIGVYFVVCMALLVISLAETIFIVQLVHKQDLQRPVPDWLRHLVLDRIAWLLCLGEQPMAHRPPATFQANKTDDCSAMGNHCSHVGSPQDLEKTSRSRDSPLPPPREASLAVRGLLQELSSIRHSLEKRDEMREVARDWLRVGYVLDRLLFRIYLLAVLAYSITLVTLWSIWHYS
Protocol: Cerebral cortical tissues were removed from male Sprague-Dawley (SD) rats (Japan SLC), weighed and placed in 10 volumes of 50 mM ice-cold Tris-HCl (pH 7.5). This was homogenized in a Polytron homogenizer (30 sec at full speed) and subsequently centrifuged at 48,000 g and 4° C. for 15 min. The resulting pellet was resuspended in 50 mM ice-cold Tris-HCl, homegenized and centrifuged again in the same way. The final pellet was resuspended in an appropriate volume of 50 mM Tris-HCl, dispensed into aliquots and stored at −80° C. until use.
The protein concentrations of homogenates were determined by Bradford method or BCA protein method (Pierce) with BSA as a standard.
Affinity of compounds for pig or bovine 5-HT4 and rat 5-HT3 receptors were assessed with using radiolabeled specific ligands, GR 113808 ({1-[2-(methylsulfonyl)ethyl]-4-piperidinyl} [methyl-^3H]-1H-indole-3-carboxylate) and BRL 43694 (1-Methyl-N-(9-[methyl-^3H]-9-azabicyclo [3.3.1]non-3-yl)-1H-indazole-3-caboxamide). Compounds were incubated with 25-100 pM of [^3H]-GR 113808 (Amersham) and 0.6-1 mg protein of pig or bovine striatal membranes suspended in a final volume of 0.8-1 ml of 50 mM Tris-HCl (pH 7.5). Nonspecific binding was determined with 10-50 μM 5-HT. The binding of 0.3 nM [^3H]-BRL 43694 (NEN) was measured using 400 μg protein of rat cortical membranes suspended in a final volume of 500 μl of 50 mM Tris-HCl (pH 7.5)., Nonspecific binding was determined with 10 μM 5-HT.
The plates were incubated at room temperature on a plate shaker for 30 min. The assays were stopped by rapid filtration using a Brandell cell harvester through Wallac-B filters pre-soaked in 0.2% poly(ethylenimine) at 4° C. for 60-90 min. The filters were washed three times with 1 ml of ice-cold 50 mM HEPES, and were dried in a microwave or at room temperature. They were bagged and heated with meltilex scintillant (Wallac) or soaked in BetaplateScint (Wallac). Receptor-bound radioactivity was quantified using Big-spot counter, Betaplate counter (Wallac) or LS counter (Packard).

[4] = molecular target: T4, 5-HT3 (Cavia porcellus, UniProt O70212); test: 5-HT3 antagonist assay in guinea-pig longitudinal muscle-myenteric plexus (LMMP)
T4 construct: 5-HT3 antagonist assay in guinea-pig longitudinal muscle-myenteric plexus (LMMP); from tissue; host or cells: guinea-pig longitudinal muscle-myenteric plexus (LMMP)
T4 sequence (O70212 20-490): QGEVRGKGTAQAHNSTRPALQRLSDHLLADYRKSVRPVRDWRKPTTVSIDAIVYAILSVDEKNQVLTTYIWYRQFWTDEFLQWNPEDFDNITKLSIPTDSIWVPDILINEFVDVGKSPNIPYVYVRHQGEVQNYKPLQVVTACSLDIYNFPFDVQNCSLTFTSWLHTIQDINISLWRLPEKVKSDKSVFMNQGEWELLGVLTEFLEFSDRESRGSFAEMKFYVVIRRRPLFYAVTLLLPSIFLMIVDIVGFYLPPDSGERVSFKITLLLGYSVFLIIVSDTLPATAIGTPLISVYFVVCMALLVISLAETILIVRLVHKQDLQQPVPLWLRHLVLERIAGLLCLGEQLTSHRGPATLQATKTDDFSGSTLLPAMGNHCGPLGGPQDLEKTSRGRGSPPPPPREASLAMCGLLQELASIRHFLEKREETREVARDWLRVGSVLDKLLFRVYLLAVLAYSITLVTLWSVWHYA
Protocol: 5-HT3 Functional Assay Method
5-HT3 antagonist assay in guinea-pig longitudinal muscle-myenteric plexus (LMMP): The LMMP tissues were prepared according to the method of A. Butler et al. (Br. J. Pharmacology, 101: 591-598, 1990) and their 5-HT4 receptors were desensitized by performing in 10 μM of 5-methoxytryptamine-containing Krebs solution. Non-cumulative concentration-effect curves (CECs) to 5-HT were constructed across the range […] in half-log unit increments. After 60-minute-equilibration with antagonists, 2nd CECs to 5-HT were constructed until 1 mM.

T1 sequence (Q13639 1-360 isoform Q13639-3): as the sequence (Q13639 1-360 isoform Q13639-3) above

Row | Structure (SMILES) | Ki [1] [nM] | melting point [°C] | Emax [2] [%] | EC50 [2] [nM] | Ki [3] [nM] | LMMP 5HT3 function pA ([4]; antagonism of 5-HT) | Kb ([4]; read-out: pA2 (5HT3 antagonistic functional activity) (converted)) [nM] | cAMP 5HT4 function, % @1000 ([2]; @1000 [nM], normalized to 1000 nM serotonin) [%] | 5HT4 receptor agonistic activity [2] | cAMP 5HT4 function, verdict in words [2]
1 | O=C(NC1CN2CCC1CC2)c1cc(Cl)cn2ccnc12 (centres unmarked) [C] | – | – | 11 | 2660 | 6 | – | – | – | inactive | inactive
2 | CN(C)C1(CCNC(=O)c2cc(Cl)cn3ccnc23)CCCCC1 | – | – | – | – | 785 | – | – | – | – | –

Continued, in another order:

Row | Ki [1] [nM] | melting point [°C] | Emax [2] [%] | EC50 [2] [nM] | Ki [3] [nM] | LMMP 5HT3 function pA ([4]; antagonism of 5-HT) | Kb ([4]; read-out: pA2 (5HT3 antagonistic functional activity) (converted)) [nM] | cAMP 5HT4 function, % @1000 ([2]; @1000 [nM], normalized to 1000 nM serotonin) [%] | Structure (SMILES) | 5HT4 receptor agonistic activity [2] | cAMP 5HT4 function, verdict in words [2]
3 | 109 | 153 | 58 | 40 | 48 | 6.6 | 251 | – | CCc1cn2c(N)c(Cl)cc(C(=O)NCC3CCNCC3)c2n1 [Example 2, 5-AMINO-6-CHLORO-2-ETHYL-N-(PIPERIDIN-4-YLMETHYL)IMIDAZO[1,2-a]PYRIDINE-8-CARBOXAMIDE] | – | –
4 | 1.1 | – | – | – | 4300 | – | – | 0 | CCCCN1CCC(CNC(=O)c2cc(Cl)cn3ccnc23)CC1 [compound B] | inactive | inactive
5 | 58 | – | 88 | 13.6 | 26 | – | – | – | Cc1cn2c(N)c(Cl)cc(C(=O)NCC3CCNCC3)c2n1 [Example 1, 5-AMINO-6-CHLORO-2-METHYL-N-(PIPERIDIN-4-YLMETHYL)-IMIDAZO[1,2-a]PYRIDINE-8-CARBOXAMIDE] | – | –
6 | – | 237 | – | – | – | – | – | – | Cc1cn2c(N)c(Cl)cc(C(=O)NCC3CCNCC3)c2n1 (as salt: hydrochloride) [Example 1, 5-AMINO-6-CHLORO-2-METHYL-N-(PIPERIDIN-4-YLMETHYL)-IMIDAZO[1,2-a]PYRIDINE-8-CARBOXAMIDE] | – | –
